{"source": "patent US8535617B2", "about": "“Blood cell barrier for a lateral flow device” (Kimberly-Clark Worldwide, Inc., priority 2007, dated 2013)", "key": {"fresh human blood [1]": {"system": "fresh human blood", "assay": "Blood separation on nitrocellulose lateral flow membrane strips with a linoleic acid line", "procedure": "(§1) A circle of Whatman filter paper (Qualitative 18.5 cm) was cut into strips (16 cm×2 cm). A thin line of linoleic acid was placed 8 cm from the bottom end of the strip using a syringe with needle, to lay down a thin line of liquid (approximately 5-10 μl). Next, a drop (20 μl) of fresh human blood was placed onto the strip 4 cm up from the bottom. A control strip was prepared in a similar manner except no linoleic acid was placed on the control strip. The strips were then attached to a glass rod, being 6 cm away from each other, using scotch tape. In a manner similar to paper chromatography, the strips were placed into a tall beaker (2 liter volume) containing deionized water (50 ml) in such a manner that the bottom end of the paper strips just entered the water. The water wicked up the vertically hanging strips.\nThe experiment described in Example 1 was repeated but using nitrocellulose lateral flow membrane strips (Bangs Laboratories Inc., Fishers Ind.) in place of the paper strips. The same procedure was conducted and at the end of the flow period (20 minutes) the strips were allowed to dry. […] In contrast, the control strip allowed the blood to travel up the entire length of the strip. […]"}, "fresh human blood [2]": {"system": "fresh human blood", "assay": "Blood separation on filter paper strips with a linoleic acid line, eluted with water", "settings": "Whatman filter paper strip", "procedure": "as §1\nThe system was allowed to run for another 20 minutes after which time the strips were taken out and allowed to air dry. Both strips were then sprayed with a ninhydrin spray to detect amino acids. […] The control had traces present along the length and a strong presence where the blood spot had stopped."}}, "data": [{"smiles": "CCCCCC=CCC=CCCCCCCCC(=O)O", "note": "[linoleic acid, 9,12-octadecadienoic acid]", "values": [{"measurement": "movement of blood spot on strip", "setting": "fresh human blood [1]; nitrocellulose lateral flow membrane strip, flow period 20 minutes", "value": "halted at the linoleic acid line"}, {"measurement": "phenolphthalin / 3% hydrogen peroxide spot test for dried blood and hemoglobin", "setting": "fresh human blood [1]; nitrocellulose strip, beyond the linoleic acid line, visual pink color", "value": "no pink color developed"}, {"measurement": "movement of blood spot on strip", "setting": "fresh human blood [2]; 20 μl blood, line of approximately 5-10 μl linoleic acid, eluted by deionized water", "value": "halt at the line where the linoleic acid had been placed"}, {"measurement": "ninhydrin spray detection of amino acids", "setting": "fresh human blood [2]; after air drying, visual purple color", "value": "presence of amino acids after the line"}]}]}
